Structures are written as SMILES.

Series [1] concerns Rattus norvegicus. The experiment in a line: Terminal plasma concentration in Lewis rat at 3 mg/kg, po administered once daily. Format: ADME, organism-based. Conditions: in vivo, read-out: Cp(T).
Series [2] deals with Rattus norvegicus. The series is described as follows: In vivo inhibition of IRAK4 in Lewis rat assessed as reduction in R848-stimulated serum IL-6 secretion at 10 mg/kg, po administered once daily pretreated for 1 hr followed by R848 challenge measured after 1.5 hrs relative to control. The format is functional.
Series [3] deals with Rattus norvegicus. The experiment in a line: Terminal plasma concentration in Lewis rat at 30 mg/kg, po administered once daily. The format is ADME, organism-based. Conditions: in vivo, read-out: Cp(T).
Series [4] deals with Rattus norvegicus. The experiment in a line: Terminal plasma concentration in Lewis rat at 10 mg/kg, po administered once daily. The following applies: in vivo, read-out: Cp(T). The format is ADME, organism-based.
In series [5] the test system is Rattus norvegicus. The series is described as follows: In-vivo inhibition of IRAK4 in po dosed Lewis rat assessed as reduction in R848-stimulated serum IL-6 secretion administered once daily pretreated for 1 hr followed by R848 challenge measured after 1.5 hrs. The format is functional, organism-based.
For series [6], the system named is Rattus norvegicus. The experiment in a line: In vivo inhibition of IRAK4 in Lewis rat assessed as reduction in R848-stimulated serum IL-6 secretion at 100 mg/kg, po administered once daily pretreated for 1 hr followed by R848 challenge measured after 1.5 hrs relative to control. The format is functional.
Series [7] relates to Rattus norvegicus. The experiment in a line: Terminal plasma concentration in Lewis rat at 100 mg/kg, po administered once daily. The following applies: in vivo, read-out: Cp(T). The format is ADME, organism-based.
Series [8] addresses T1, Interleukin-1 receptor-associated kinase 4 (Homo sapiens) (UniProt Q9NWZ3).
T1 sequence (whole entry): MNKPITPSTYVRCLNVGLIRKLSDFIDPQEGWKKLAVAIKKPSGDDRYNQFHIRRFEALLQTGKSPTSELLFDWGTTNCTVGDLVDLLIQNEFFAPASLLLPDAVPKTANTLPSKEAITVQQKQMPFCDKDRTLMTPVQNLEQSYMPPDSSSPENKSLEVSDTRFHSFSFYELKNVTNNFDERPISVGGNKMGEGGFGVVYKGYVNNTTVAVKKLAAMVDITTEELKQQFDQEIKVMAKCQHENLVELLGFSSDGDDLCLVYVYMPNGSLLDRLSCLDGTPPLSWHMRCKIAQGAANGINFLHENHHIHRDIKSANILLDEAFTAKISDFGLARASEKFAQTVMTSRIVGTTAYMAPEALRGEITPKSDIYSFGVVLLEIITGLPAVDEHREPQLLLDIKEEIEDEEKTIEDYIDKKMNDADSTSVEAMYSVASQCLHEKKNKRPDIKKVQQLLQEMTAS
The experiment in a line: Inhibition of IRAK4 in human whole blood assessed as reduction in R848-stimulated TNF alpha production preincubated for 30 mins followed by R848 addition measured after 5 hrs.

Series [9] is described as follows: Half life in rat. The format is ADME. The following applies: in vivo.
The target in series [10] is T2, Interleukin-1 receptor-associated kinase 4 (Rattus norvegicus, UniProt D4A7K4).
T2 sequence (D4A7K4 whole entry): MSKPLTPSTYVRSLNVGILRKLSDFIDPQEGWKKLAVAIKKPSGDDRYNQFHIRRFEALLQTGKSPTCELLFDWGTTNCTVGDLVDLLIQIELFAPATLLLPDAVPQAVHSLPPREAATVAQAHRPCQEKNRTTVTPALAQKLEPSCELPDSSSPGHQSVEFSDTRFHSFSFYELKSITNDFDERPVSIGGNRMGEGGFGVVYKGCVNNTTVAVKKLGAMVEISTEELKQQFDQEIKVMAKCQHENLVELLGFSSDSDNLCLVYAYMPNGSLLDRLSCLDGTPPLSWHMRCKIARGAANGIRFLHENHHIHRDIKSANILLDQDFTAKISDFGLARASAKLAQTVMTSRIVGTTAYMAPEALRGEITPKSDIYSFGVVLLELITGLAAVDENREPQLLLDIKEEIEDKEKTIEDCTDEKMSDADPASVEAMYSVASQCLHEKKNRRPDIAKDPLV
The experiment in a line: Inhibition of IRAK4 in Lewis rat whole blood assessed as reduction in R848-stimulated TNF alpha production after 4 hrs.

The nature of series [11]: Apparent permeability in MDCK cells. Format: ADME, cell-based, Canis lupus familiaris. The following applies: dog.
For series [12], the system named is Rattus norvegicus. The experiment in a line: In vivo inhibition of IRAK4 in Lewis rat assessed as reduction in R848-stimulated serum IL-6 secretion at 30 mg/kg, po administered once daily pretreated for 1 hr followed by R848 challenge measured after 1.5 hrs relative to control. The format is functional.
Series [13] has as its target T3, Interleukin-1 receptor-associated kinase 4 (Homo sapiens, UniProt Q9NWZ3).
T3 sequence (Q9NWZ3 whole entry): T1 sequence (whole entry)
The experiment in a line: Inhibition of recombinant human full length GST tagged IRAK4 expressed in baculovirus infected Sf9 cells using RP7030 peptide as substrate after 30 mins in presence of ATP by fluorescence polarization assay.

The nature of series [14]: Oral bioavailability in rat. Format: ADME, organism-based. Conditions: in vivo.
A short description of series [15]: Clearance in rat. Format: ADME. Conditions: in vivo.
The test system of series [16] is Rattus norvegicus. The experiment in a line: In vivo inhibition of IRAK4 in Lewis rat assessed as reduction in R848-stimulated serum IL-6 secretion at 3 mg/kg, po administered once daily pretreated for 1 hr followed by R848 challenge measured after 1.5 hrs relative to control. The format is functional.

By inhibition in vivo is commonly meant the percentage by which the read-out fell short of the control. The term IC50 denotes the concentration at which inhibition is half-maximal. As a reminder, the half-life is the time in which the quantity being followed falls by half. The low end stands for rapid decline, the high end for slow decline. Broadly, the EC50 is the concentration giving half of the maximal effect. Usually Papp stands for the rate of passage across a membrane or cell layer, normalised by area and donor concentration. One may read the bioavailability as the share of a dose that reaches the circulation, judged against a reference dose that is usually intravenous. In general, clearance refers to the rate of elimination divided by the concentration. Read a high clearance as a high capacity for elimination. `N#Cc1ccc2ncnc(N[C@H]3CC[C@H](N4CCOCC4)CC3)c2c1`: the concentration in series [1] worked out at 5.7 µM; in [3], 54 µM; in [4], 19 µM; in series [7], 112 µM. Also, in series [2], the inhibition in vivo at 10 mg/kg amounted to 2%. In addition, the inhibition result in series [5] was “Dose-dependent effect”. The inhibition in vivo at 100 mg/kg in series [6] is 91%. The concentration for half-maximal inhibition (IC50) in series [8] came out at 0.3 µM; in [13], 0.007 µM. The compound further gave a half-life in series [9] of 1.3 h. Further, the concentration for a half-maximal effect (EC50) in series [10] is 2.3 µM. Moreover, the Papp in [11] came out at 41 ×10⁻⁶ cm/s. In [12], the inhibition in vivo at 30 mg/kg was 57%. Also, the bioavailability in series [14] was found to be 73%. Further, the clearance in series [15] came out at 22 mL/min/kg.

With `N#Cc1ccc2ncnc(N[C@H]3CC[C@H](N4CCCC4)CC3)c2c1`, the IC50 in series [8] was 0.3 µM.

Regarding `CN(C)[C@H]1CC[C@H](Nc2ncnc3ccc(C(F)(F)F)cc23)CC1`, in [8], the IC50 came to 0.62 µM.

In the case of `C[C@@H]1C[C@H]2[C@@H]3CCC4=CC(=O)C=C[C@]4(C)[C@@]3(F)[C@@H](O)C[C@]2(C)[C@@]1(O)C(=O)CO` [DEXAMETHASONE], the concentration in series [1] is 10 µM. For the same compound, the inhibition in vivo at 3 mg/kg in series [16] was found to be 86%.

With `CNCCCCc1c(-c2cc(C)cc(C)c2)cnc2ccc(-c3cncc(O)c3)cc12`, the Papp in [11] is 11 ×10⁻⁶ cm/s.

`Cc1ccc2ncnc(N[C@H]3CC[C@H](N(C)C)CC3)c2c1`: in series [8], the IC50 is 1.8 µM.

`CC(C)c1ccc2ncnc(N[C@H]3CC[C@H](N(C)C)CC3)c2c1`: the figures for the IC50 in series [8] and in series [13] were 1.1 µM and 0.016 µM, respectively.

In the case of `CN(C)[C@H]1CC[C@H](Oc2ncnc3ccc([N+](=O)[O-])cc23)CC1`, the half-inhibitory concentration (IC50) in series [8] stood at 2 µM; in series [13], 0.058 µM.

`CN(C)[C@H]1CC[C@H](Nc2ncnc3ccc(C#N)cc23)CC1`: the IC50 in series [8] is 0.77 µM. In addition, the concentration giving a half-maximal response (EC50) in [10] is 1.7 µM.

As to `CN(C)[C@H]1CC[C@H](Nc2ncnc3ccc(C4CC4)cc23)CC1`, the 50% inhibitory concentration (IC50) worked out at 2.5 µM in series [8] and 0.012 µM in series [13].

For `CCc1ccc2ncnc(N[C@H]3CC[C@H](N(C)C)CC3)c2c1`, the results for the half-inhibitory concentration (IC50) in series [8] and in series [13] were 1.2 µM and 0.017 µM, respectively.

As for `CN1CCN([C@H]2CC[C@H](Nc3ncnc4ccc(C#N)cc34)CC2)CC1`, the concentration for half-maximal inhibition (IC50) in series [8] stood at 0.274 µM.

For the compound `CN(C)[C@H]1CC[C@H](Nc2ncnc3ccc(Br)cc23)CC1`, the half-maximal inhibitory concentration (IC50) in [8] amounted to 0.29 µM; in [13], 0.01 µM.

Take `CS(=O)(=O)N1CCN([C@H]2CC[C@H](Nc3ncnc4ccc(C#N)cc34)CC2)CC1`: in series [8], the IC50 was determined as 0.33 µM.

For `N#Cc1ccc2ncnc(N[C@H]3CC[C@H](N4CCC(F)(F)CC4)CC3)c2c1`, the IC50 in [8] stood at 0.2 µM.

As for `N#Cc1ccc2ncnc(N[C@H]3CC[C@H](N)CC3)c2c1`, the values for the IC50 in series [8] and in series [13] were 1.4 µM and 0.032 µM, respectively.

Turning to `N#Cc1ccc2ncnc(N[C@H]3CC[C@H](N4CCC4)CC3)c2c1`, the half-inhibitory concentration (IC50) in [8] was determined as 0.62 µM; in series [13], 0.035 µM.

Take `N#Cc1ccc2ncnc(N[C@H]3CC[C@H](N4CCC(F)CC4)CC3)c2c1`: the IC50 in series [8] was found to be 0.1 µM.

`CN(C)[C@H]1CC[C@H](Nc2ncnc3cc(F)c(F)cc23)CC1`: in [8], the half-maximal inhibitory concentration (IC50) is more than 10 µM.

As for `COc1ccc2ncnc(N[C@H]3CC[C@H](N(C)C)CC3)c2c1`, the results for the concentration for half-maximal inhibition (IC50) in [8] and in series [13] were 1.1 µM and 0.016 µM, respectively.

For the origin of these results see ChEMBL document CHEMBL4020773, “Identification of quinazoline based inhibitors of IRAK4 for the treatment of inflammation” (Bioorg Med Chem Lett, 2017).
